According to patent publication US9616025B2, “Compressed tablet containing Δ9-tetrahydrocannabinol, method for its manufacture and use of such tablet in oral treatment” (Echo Pharmaceuticals B.V., priority 2013, dated 2017):
Where two headings read alike, the source gives them in different places.

Assays:
[1] = cited from earlier work; for reported tmax-values: previous studies
[2] = Rate of dissolution of THC, Ph. Eur. 2.9.3, 1 wt % SDS in water pH 7; type: physicochemical; settings: 5 mg THC, pH 7, 36-41° C.
Description: The rate of dissolution of THC from the compressed tablets described in Example 2 was tested according to European Pharmacopeia (Ph. Eur. 2.9.3) for oral tablets (5 mg THC). The rate of dissolution of pure THC (5 mg) was also measured according to the same method for comparison.
The dissolution medium consisted of a solution of 1 wt % SDS in water. The pH of the medium had been adjusted to pH 7 with diluted HCl. During the experiments, the temperature of the dissolution media was maintained between 36 and 41° C. under stirring.
After dropping the tablets in the dissolution medium, samples were taken at various time intervals with a disposable syringe. The samples were filtered immediately over a syringe filter into a HPLC vial and analyzed by HPLC.
Tablets were prepared as in Example 2, except that the sucrose fatty ester (SML) was substituted by glyceryl monostearate (GMS). Dissolution tests as described in example 3 were performed with these tablets and the tablets described in Example 2.

Row | Compound | time to maximal concentration of the active metabolite 11-OHTHC ([1]; published) [min] | reported tmax-values [1] [h] | % (w/w) of THC dissolved ([2]; 1 min) | % (w/w) of THC dissolved ([2]; 4 min) | % (w/w) of THC dissolved ([2]; 8 min) | % (w/w) of THC dissolved ([2]; 15 min) | Plasma THC maximum concentrations ([1]; after a 20 mg dose of oral THC (Ohlsson 1980)) [µg/L] | bioavailability ([1]; inhaled (Ohlsson 1982)) | time of peak concentrations post dose ([1]; oral) [h] | bioavailability ([1]; orally administered (Ohlsson 1982))
1 | CCCCCc1cc(O)c2c(c1)OC(C)(C)[C@@H]1CCC(C)=C[C@@H]21 [dronabinol] | 120 to 204 |  |  |  |  |  |  |  |  | 
2 | CCCCCCC(C)(C)c1cc(O)c2c(c1)OC(C)(C)C1CCC(=O)CC21 (centres unmarked) [nabilone] |  | 2 to 4 |  |  |  |  |  |  |  | 
3 | CCCCCc1cc(O)c2c(c1)OC(C)(C)[C@@H]1CCC(C)=C[C@@H]21 [THC, Δ9-tetrahydrocannabinol] |  | 1 to 4 | 1.0 % (w/w) | 3.5 % (w/w) | 5.8 % (w/w) | 10.2 % (w/w) | 4.4 to 11.0 | up to 27% | 1 to 5 | approximately 6%
